# Measured values reported in patent US10392383B2, “3-(1H-benzo[d]imidazol-2-yl)-1H-pyrazolo[4,3-b]pyridines and therapeutic uses thereof” (Samumed, LLC, priority 2015, dated 2019).
# Legend:
# [1] = system: primary human fibroblasts derived from IPF patients (LL29 cells) treated with TGF-β1; test: Inhibition of the fibrotic process: αSMA staining in TGF-β1-treated LL29 fibroblasts; assay type: cell-based; conditions: Fibroblast, 96 h, LL29 fibroblasts treated with TGF-β1 (20 ng/mL), 4 days, Table 4
# In short: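 EC50 from triplicate-well dose-response fits of % αSMA-positive cells, normalized to TGF-β1-stimulated DMSO controls, with SYTOX-positive dead cells excluded. LL29 IPF fibroblasts received compound at 10 μM–1.87 nM (0.1% DMSO) plus 20 ng/mL TGF-β1 for 4 days in 1% FBS medium; above 10 μM, % inhibition at 10 μM reported.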
# [2] = system: Wnt activity (Sp5-Luc reporter, Wnt-responsive promoter) in SW480 colon carcinoma cells; test: Wnt activity screening assay: Sp5-Luc reporter gene assay in SW480 cells; assay type: cell-based; conditions: Homo sapiens, overnight incubation, 10-point curve starting from 10 μM
# In short: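 Luminescence (BrightGlo) was normalised to DMSO-only wells and fitted with a four-parameter variable-slope model for EC50; beyond 10 μM, % inhibition at 10 μM is given. Stable Sp5-Luc SW480 reporter cells, 4,000/well in 1% FBS, were exposed overnight at 37 °C to compounds, top 10 μM, 1:3 dilutions, 0.1% DMSO.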
compound,measurement,setting,value
"CN1CCN(c2cccc3[nH]c(-c4n[nH]c5ccc(-c6cncc(OCc7ccccc7)c6)nc45)nc23)CC1 [Compound 646, 5-(5-(Benzyloxy)pyridin-3-yl)-3-(4-(4-methylpiperazin-1-yl)-1H-benzo[d]imidazol-2-yl)-1H-pyrazolo[4,3-b]pyridine]",EC50,[1],1460 nM
same,EC50,[2],1060 nM
